Patent US20080075796A1, “Compositions and Methods for Controlling Insects” (TyraTech, Inc., priority 2003, published 2008)

Assays:
[1] = system: Drosophila melanogaster tyramine receptor (TyrR), SEQ ID NO: 2; experiment: Inhibition of 3H-tyramine binding to membranes of Schneider cells expressing TyrR; conditions: compared with tyramine, FIG. 4
Protocol: Phage DNA is purified from this library using a liquid culture lysate.
In order to determine the pharmacological profile of tyramine receptor (TyrR), the ability of a number of putative Drosophila neurotransmitters to displace ^3H-tyramine (^3H-TA) binding from membranes expressing tyramine receptor is tested.

tyramine receptor (TyrR) [2] = target: T1, tyramine receptor (TyrR) (Drosophila melanogaster, UniProt P22270); experiment: Saturation binding of ^3H-tyramine to membranes from Schneider cells expressing tyramine receptor; conditions: saturation binding, membranes expressing TyrR
T1 sequence (P22270 27-601): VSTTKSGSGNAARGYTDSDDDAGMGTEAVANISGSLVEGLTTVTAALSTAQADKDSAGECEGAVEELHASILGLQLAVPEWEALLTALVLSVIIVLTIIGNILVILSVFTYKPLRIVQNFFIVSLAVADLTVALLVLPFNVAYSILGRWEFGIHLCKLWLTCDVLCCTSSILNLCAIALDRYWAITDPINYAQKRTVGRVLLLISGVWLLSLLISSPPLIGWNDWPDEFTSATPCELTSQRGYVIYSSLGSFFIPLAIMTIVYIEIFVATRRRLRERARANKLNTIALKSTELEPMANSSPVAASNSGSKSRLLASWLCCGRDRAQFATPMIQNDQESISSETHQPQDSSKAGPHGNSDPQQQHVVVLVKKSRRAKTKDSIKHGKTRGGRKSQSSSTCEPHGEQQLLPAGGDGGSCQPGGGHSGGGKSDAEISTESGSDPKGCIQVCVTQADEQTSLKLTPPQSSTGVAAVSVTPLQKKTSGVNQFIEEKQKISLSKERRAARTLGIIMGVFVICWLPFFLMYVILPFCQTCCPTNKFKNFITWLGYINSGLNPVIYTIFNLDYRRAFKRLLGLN
Protocol: A preliminary study to determine the optimum concentration of membrane protein for receptor binding activity is performed. […] After about 1 hr incubation at room temperature, reactions are terminated by filtration through GF/C filters (VWR), which have been previously soaked in about 0.3% polyethyleneimine (PEI). The filters are washed one time with about 4 ml ice cold Iris buffer and air dried before the retained radioactivity is measured using LSC. Binding data is analyzed by curve fitting (GraphPad software, Prism).
Receptor binding reactions are incubated for about 1 hr at room temperature (RT) in restricted light. Reactions are terminated by filtration through OF/C filters (VWR), which have been previously soaked in about 0.3% polyethyleneimine (PEI). The filters are washed one time with about 4 ml ice cold Tris buffer and air dried before retained radioactivity is measured using LSC. Binding data is analyzed by curve fitting (GraphPad software, Prism).

tyramine receptor (TyrR) [3] = target: T1, tyramine receptor (TyrR); experiment: cAMP levels in Schneider cells expressing tyramine receptor; assay type: cell-based; design: oligonucleotides that are used to amplify the open reading frame of the Drosophila tyramine receptor (TyrR); expressed in transfected cells; conditions: forskolin about 10 μM, transfected cells, vs solvent (ethanol)
Protocol: (§1) Cells are grown on dishes and the media changed the day before the treatment. When cells are approximately 95% confluent, media is aspirated and the cells are washed one time with about 5 mL of about 27° C. insect saline (170 mM NaCl, 6.0 mM KCl, 2.0 mM NaHCO3, 17.0 mM glucose, 6.0 mM NaH2PO4, 2.0 mM CaCl2, 4.0 mM MgCl2; pH 7.0). About 20 mL of insect saline is added, and cells are harvested by gentle scraping. An aliquot of the cells is counted by hemocytometer, and the cells are then centrifuged for about 5 minutes at about 1000 RPM. Cells are resuspended to give about 3×10^6 cells per mL. IBMX is added to about 200 μM. Then about 1 mL of cell suspension is aliquoted for treatment. Forskolin (cAMP inducing agent), tyramine or different composition candidates are added, and the cells are incubated at about 27° C. for about 10 minutes.
Treated cells are centrifuged at about 13000 g for about 10 seconds. The solution is aspirated and about 1 mL of about −20° C. 70% ethanol is added. The cell pellet is disrupted by vortexing and the samples placed at about −20° C. overnight. Following the ethanol extraction, cellular debris is pelleted by centrifugation at about 13000 g for about 5 minutes. The supernatant is transferred to a tube and lyophilized to dryness in a rotary speed-vac. […]
The cAMP assay is based on competition binding between endogenous cAMP and ^3H-cAMP to a cAMP binding protein. […] About 200 μL of the reaction mixture is removed and levels of ^3H-cAMP are determined by scintillation counting. Levels of endogenous cAMP from the cells are calculated using a standard curve with cold cAMP ranging from about 0 to 16 pmol per reaction.
To examine test chemical-dependent coupling of the tyramine receptor, pAcB-TyrR is stably expressed in Schneider cells. Transfected and untransfected cells are treated with tyramine (about 10 μM), LFO (about 25 μg/ml) and BSO (about 25 μg/ml) in the presence and absence of forskolin (FK) (about 10 μM). cAMP production is measured using the ^3H-cAMP assay kit (Amersham) as described above.

Or43a receptor [4] = target: T2, Or43a receptor (Drosophila melanogaster, UniProt P81917, L154V); experiment: cAMP production in Schneider cells expressing Or43a receptor; assay type: cell-based; conditions: agent alone; tyramine about 20 μM, LFO, BSO about 50 μg/ml, forskolin about 10 μM
T2 construct: His (from vector pAc5.1/V5-His B) (C); expressed in transfected cells
Protocol: as §1, with “When cells are approximately 95% confluent, media is aspirated and the cells are washed one time with about 5 mL of about 27° C. insect saline (170 mM NaCl, 6.0 mM KCl, 2.0 mM NaHCO3, 17.0 mM glucose, 6.0 mM NaH2PO4, 2.0 mM CaCl2, 4.0 mM MgCl2; pH 7.0).” left out
(§2) Treated cells are centrifuged at about 13000 g for about 10 seconds. The solution is aspirated and about 1 mL of about −20° C. 70% ethanol is added. The cell pellet is disrupted by vortexing and the samples placed at about −20° C. overnight. Following the ethanol extraction, cellular debris is pelleted by centrifugation at about 13000 g for about 5 minutes. The supernatant is transferred to a tube and lyophilized to dryness in a rotary speed-vac. The resulting extract is resuspended in about 100 μL TE and used for the cAMP assay.
(§3) The cAMP assay is based on competition binding between endogenous cAMP and ^3H-cAMP to a cAMP binding protein. The ^3H-cAMP Biotrak system (Amersham Biosciences) is used for this assay as per the manufacturer's instructions. Briefly, about 50 μL of the cellular extract is incubated with about 50 μL ^3H-cAMP and about 100 μL cAMP binding protein in an ice bath for about 2-4 hours. Charcoal (about 100 μL) is then added and the solution centrifuged for about 3 minutes at about 4° C. About 200 μL of the reaction mixture is removed and levels of ^3H-cAMP are determined by scintillation counting.
As such, the cells expressing olfactory receptors have a functionally active cAMP cascade.

Or83b receptor [5] = target: T3, Or83b receptor (Drosophila melanogaster, UniProt Q9VNB5); experiment: cAMP production in Schneider cells expressing Or83b receptor; assay type: cell-based
T3 construct: His (from vector pAc5.1/V5-His B) (C); expressed in transfected cells
T3 sequence (Q9VNB5 1-486): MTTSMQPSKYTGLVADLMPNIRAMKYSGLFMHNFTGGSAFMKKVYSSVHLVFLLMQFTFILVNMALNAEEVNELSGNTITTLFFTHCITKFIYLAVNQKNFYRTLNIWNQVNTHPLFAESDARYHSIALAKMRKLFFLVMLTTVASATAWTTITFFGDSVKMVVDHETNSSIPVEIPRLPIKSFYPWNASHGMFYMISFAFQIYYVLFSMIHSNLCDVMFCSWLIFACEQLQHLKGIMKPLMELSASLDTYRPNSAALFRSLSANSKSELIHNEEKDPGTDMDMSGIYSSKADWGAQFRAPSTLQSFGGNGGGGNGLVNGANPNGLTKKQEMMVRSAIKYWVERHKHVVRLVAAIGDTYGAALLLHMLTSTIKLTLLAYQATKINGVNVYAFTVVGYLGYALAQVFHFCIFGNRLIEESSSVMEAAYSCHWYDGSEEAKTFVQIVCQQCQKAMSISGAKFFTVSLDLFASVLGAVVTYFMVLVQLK
Protocol: as §1, §2
as §3, with “counting. Levels of endogenous cAMP from the cells are calculated using a standard curve with cold cAMP ranging from about 0 to 16 pmol per reaction.” for “counting.”
To ensure that the cAMP cascade in this cell model is functionally active, forskolin, a cAMP inducer, is used as standard agent. Cyclic-AMP levels are measured using the cAMP assay described above in Example 2. […]
To determine the effect of various plant essential oils on intracellular cAMP production and the tyramine-dependent changes of cAMP in cells expressing one of the olfactory receptors, cells from each cell model are treated with LFO (about 50 μg/ml) and BSO (about 50 μg/ml) in the presence and absence of tyramine (about 20 μM) and forskolin (about 10 μM) and intracellular cAMP is thereafter quantified using the cAMP assay described above in Example 2.

Or83b receptor [6] = target: T3, Or83b receptor; experiment: Intracellular Ca^2+ mobilization in Schneider cells expressing Or83b receptor; assay type: cell-based; conditions: ionomycin about 2 μM, tyramine about 10 μM
Protocol: (§4) Intracellular calcium ion concentrations ([Ca^2+]i) are measured by using the acetoxymethyl (AM) ester of the fluorescent indicator fura-2 (Enan, et al., Biochem. Pharmacol vol 51, 447-454). In this study, cells expressing tyramine receptor are grown under standard conditions. A cell suspension is prepared in assay buffer (140 mM NaCL, 10 mM HEPES, 10 mM glucose, 5 mM KCl, 1 mM CaCl2, 1 mM MgCl2) and cell number adjusted to about 2×10^6 cells per ml. Briefly, about 1.0 ml cell suspension (about 2×10^6 cells) is incubated with about 5 μM Fura 2/AM for about 30 min at about 28° C. After incubation, the cells are pelleted at about 3700 rpm for about 10 sec at room temperature and then resuspended in about 1.5 ml assay buffer. [Ca^2+]i changes are analyzed in spectrofluorometer in the presence and absence of test chemicals. Excitation wave lengths are about 340 nm (generated by Ca^2+-bound fura-2) and about 380 nm (corresponding to Ca^2+-free fura-2). The fluorescence intensity is monitored at an emission wave length of about 510 nm. No absorbance of fluorescence artifacts are observed with any of the compounds used. The ratio of about 340/380 nm is calculated and plotted as a function of time.
(§5) Intracellular Ca^2+ levels are measured using the method described above in Example 3.

Or43a receptor [7] = target: T2, Or43a receptor; experiment: Intracellular Ca^2+ mobilization in Schneider cells expressing Or43a receptor; assay type: cell-based
Protocol: as §4, §5
(§6) Changes in intracellular Ca^2+ levels are calculated based on the difference between the 340/380 fluorescence ratios before and after approximately 150 seconds of the treatment.

control Schneider cells = experiment: Intracellular Ca2+ mobilization in control Schneider cells; assay type: cell-based, Drosophila; conditions: FIG. 22
Protocol: as §4, §6

T2 sequence (P81917 whole entry L154V): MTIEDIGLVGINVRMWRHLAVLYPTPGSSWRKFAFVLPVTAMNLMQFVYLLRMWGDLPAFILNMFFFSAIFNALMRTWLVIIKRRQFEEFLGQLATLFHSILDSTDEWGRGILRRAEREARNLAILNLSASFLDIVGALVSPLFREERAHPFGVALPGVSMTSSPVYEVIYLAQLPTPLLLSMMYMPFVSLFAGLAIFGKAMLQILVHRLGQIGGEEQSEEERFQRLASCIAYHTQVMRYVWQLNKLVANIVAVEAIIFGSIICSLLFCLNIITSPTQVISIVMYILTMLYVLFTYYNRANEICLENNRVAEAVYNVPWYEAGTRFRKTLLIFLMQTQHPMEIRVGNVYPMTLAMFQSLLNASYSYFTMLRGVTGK

NCCc1ccc(O)c(O)c1 [Dopamine]
displacing 3H-tyramine binding [1]: less efficient than tyramine

NCC(O)c1ccc(O)cc1 (stereo not shown) [Octopamine]
displacing 3H-tyramine binding [1]: less efficient than tyramine

NCCc1c[nH]c2ccc(O)cc12 [Serotonin]
displacing 3H-tyramine binding [1]: less efficient than tyramine

NCCc1ccc(O)cc1 [^3H-tyramine]
Bmax (tyramine receptor (TyrR) [2]): about 0.679 pmol/mg protein
Kd (tyramine receptor (TyrR) [2]): ~1.26 nM

C=C[C@@]1(C)CC(=O)[C@]2(O)[C@@]3(C)[C@@H](O)CCC(C)(C)[C@@H]3[C@H](O)[C@H](OC(C)=O)[C@@]2(C)O1 [forskolin]
increase in cAMP levels over basal level (tyramine receptor (TyrR) [3]): ~19 fold
change in cAMP levels (Or43a receptor [4]): increase in cAMP levels
increase in the production of cAMP (Or83b receptor [5]; forskolin about 10 μM (Example 11)): ~3000 fold
increase from basal cAMP levels (Or83b receptor [5]; forskolin about 10 μM, about 10 min, room temperature): ~13 fold

C[C@H](CCC(=O)O)C[C@H](C)C[C@H](C)C(=O)/C=C(\O)[C@H](C)C[C@H](C)C/C=C/[C@@H](C)[C@@H](O)[C@@H](C)[C@@H](O)C[C@@H]1CC[C@@](C)([C@H]2CC[C@@](C)([C@@H](C)O)O2)O1 [ionomycin, reference compound]
increase in intracellular calcium (Or83b receptor [6]): Approximately 3.8 fold
change in intracellular Ca^2+ levels (340/380 fluorescence ratio) (Or43a receptor [7]; before vs approximately 150 seconds after treatment): only negligibly
increase in intracellular calcium (Or43a receptor [7]; ionomycin about 2 μM, tyramine about 10 μM): ~7 fold

C[C@H](CCC(=O)O)C[C@H](C)C[C@H](C)C(=O)/C=C(\O)[C@H](C)C[C@H](C)C/C=C/[C@@H](C)[C@@H](O)[C@@H](C)[C@@H](O)C[C@@H]1CC[C@@](C)([C@H]2CC[C@@](C)([C@@H](C)O)O2)O1 [ionomycin]
mobilization of Ca2+ in control cells (control Schneider cells): induce mobilization of Ca^2+
